Values of other authors in patent US20140296485A1, “ANIONIC DISPLACER MOLECULES FOR HYDROPHOBIC DISPLACEMENT CHROMATOGRAPHY” (SACHEM, INC., priority 2011, published 2014).

Details: pH-buffering compounds

Compound | pKa of pH buffer
CC(C)(CC(=O)O)CC(=O)O [3,3-dimethylglutaric acid] | 5.9
O=C(O)CCC(=O)O [succinic acid] | 5.2
